Test results reported in article PMC8416343, “A Facile Procedure for One-Pot Stable Conjugation of Two Proglucagon Cysteine-Containing Peptide Analogs” (Frontiers in Endocrinology, 2021).

What was measured:
[1] = pH 9.6
human GLP-1R = target: T1, human GLP-1R (Homo sapiens, UniProt P43220); assay: GLP-1 receptor activation, cAMP response element-luciferase reporter in BHK cells; type: cell-based; conditions: for Statistical significance of EC50 difference at human GLP-1 receptor: between human GLP-1, peptide 4 and peptide 5, Student's unpaired t-test, n=6; for EC50: stably transfected BHK cells over-expressing human GLP-1R, CRE-luciferase, 3 h at 37°C, assay buffer with 1% ovalbumin, 12-point 3.5-fold dilution, n=6, kind of +/- not stated
T1 construct: expressed in transfected cells; host or cells: BHK cells (stably transfected, with CRE-firefly luciferase reporter)
T1 sequence (P43220 24-463): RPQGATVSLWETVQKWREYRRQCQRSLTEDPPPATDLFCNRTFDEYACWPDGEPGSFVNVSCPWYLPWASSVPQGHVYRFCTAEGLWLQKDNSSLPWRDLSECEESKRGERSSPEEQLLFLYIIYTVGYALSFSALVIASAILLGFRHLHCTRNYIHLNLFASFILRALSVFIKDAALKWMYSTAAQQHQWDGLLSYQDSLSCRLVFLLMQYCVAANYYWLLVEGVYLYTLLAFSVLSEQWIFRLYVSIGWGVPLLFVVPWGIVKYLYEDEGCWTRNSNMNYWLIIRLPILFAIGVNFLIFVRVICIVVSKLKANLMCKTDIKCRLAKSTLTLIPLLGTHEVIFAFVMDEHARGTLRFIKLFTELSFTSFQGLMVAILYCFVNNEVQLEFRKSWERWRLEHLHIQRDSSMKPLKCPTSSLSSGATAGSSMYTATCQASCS
Procedure: (§1) Receptor activation data was collected utilizing stably transfected BHK cells over-expressing either the human GLP-1R or GcgR and firefly luciferase reporter gene linked to the cAMP response element. The cells were maintained in continuous culture in DMEM supplemented with 10% HI FBS, 300 ug/mL hygromycin, and 500 ug/mL G418 at 37°C with 5% CO2. Cells were plated in the supplemented DMEM at 5,000 cells per well in 96 well poly-D-Lysine coated Corning BioCoat plates and incubated overnight at 37°C with 5% CO2. After the overnight incubation, the media was removed from the cell plates, washed once with DPBS, and 50uL of the assay buffer (DMEM without phenol red, 10 mM Hepes, 1x Glutamax, 1% ovalbumin, and 0.1% Pluronic F-68) was added to the plate. In a separate 96 well plate, the test compounds were serially diluted by 3.5-fold across the row of the plate to create a 12-point dilution curve. […] After the incubation, the assay plates were washed once in DPBS. Following the wash, 100 uL of DPBS was added to each well of the plates followed by 100 uL of the steadylite plus reagent (PerkinElmer). The assay plates were covered to protect from light, incubated at room temperature with shaking at 250 rpm for 30 minutes and read using a microtiter plate reader. The data was plotted using GraphPad Prism 9.0.1 with the nonlinear regression log(agonist) vs. response analysis to obtain the EC50 for each compound. Additionally, GraphPad Prism was used to complete the statistical analysis of the EC50 values with n=6 was using the Student’s unpaired t-test analysis.

human GcgR = target: T2, human GcgR (Homo sapiens, UniProt P47871); assay: Glucagon receptor activation, cAMP response element-luciferase reporter in BHK cells; type: cell-based; conditions: for Statistical significance of EC50 difference at human glucagon receptor: between peptide 4 and peptide 5, Student's unpaired t-test, n=6; for EC50: stably transfected BHK cells over-expressing human GcgR, CRE-luciferase, 3 h at 37°C, assay buffer with 1% ovalbumin, 12-point 3.5-fold dilution, n=6, kind of +/- not stated
T2 construct: expressed in transfected cells; host or cells: BHK cells (stably transfected, with CRE-firefly luciferase reporter)
T2 sequence (P47871 26-477): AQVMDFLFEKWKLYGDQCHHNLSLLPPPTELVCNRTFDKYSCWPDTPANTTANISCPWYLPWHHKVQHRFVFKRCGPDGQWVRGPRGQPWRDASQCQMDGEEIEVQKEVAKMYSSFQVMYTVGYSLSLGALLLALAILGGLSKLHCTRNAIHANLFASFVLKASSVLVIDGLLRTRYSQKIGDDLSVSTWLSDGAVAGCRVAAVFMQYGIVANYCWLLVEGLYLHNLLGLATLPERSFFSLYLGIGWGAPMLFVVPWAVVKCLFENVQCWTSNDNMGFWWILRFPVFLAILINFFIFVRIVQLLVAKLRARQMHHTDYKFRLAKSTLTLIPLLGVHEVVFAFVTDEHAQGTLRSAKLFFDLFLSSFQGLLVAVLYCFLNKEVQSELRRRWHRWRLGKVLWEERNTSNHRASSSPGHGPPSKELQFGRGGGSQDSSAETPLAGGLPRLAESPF
Procedure: as §1

[2] = tested on: human GLP-1 and glucagon receptors; assay: Glucagon and GLP-1 receptor activation, both receptors together (summary statements); type: cell-based; conditions: heterodimers of glucagon and GLP-1 analogs; conclusion
Procedure: as §1, with “The data was plotted using GraphPad Prism 9.0.1 with the nonlinear regression log(agonist) vs. response analysis to obtain the EC50 for each compound. Additionally, GraphPad Prism was used to complete the statistical analysis of the EC50 values with n=6 was using the Student’s unpaired t-test analysis.” left out

[3] = Hydrolysis of thiosuccinimide / chemical stability of linker and conjugates, LC-MS; conditions: for Time to complete hydrolysis of thiosuccinimide: pH 9.6, carbonate-diluted reaction mixture, LC-MS

| Stability of linker ([3]; pH range of 6.0-8.3, compared with the self-hydrolysable maleimido linker) | Structure (SMILES) | Degradation of the conjugate during hydrolysis [1] | Statistical significance of EC50 difference at human GLP-1 receptor (human GLP-1R) | EC50 (human GLP-1R) | Statistical significance of EC50 difference at human glucagon receptor (human GcgR) | EC50 (human GcgR) | GLP-1 receptor activity relative to glucagon [2] | Potency in stimulating cAMP at GLP-1 receptors, in words (human GLP-1R; compared with native GLP-1, BHK cells, human GLP-1R) | Thiosuccinimide hydrolysis at pH 8.3 ([3]; pH 8.3, prolonged alkylation time) | Time to complete hydrolysis of thiosuccinimide ([3]; 37°C) | Time to complete hydrolysis of thiosuccinimide ([3]; room temperature) | Potency at human GCG receptor, in words (human GcgR; BHK cells, human GcgR, reduced versus native human glucagon, comparable between peptides 4 and 5) |
| --- | --- | --- | --- | --- | --- | --- | --- | --- | --- | --- | --- | --- |
|  | CC[C@H](C)[C@H](NC(=O)[C@H](Cc1ccccc1)NC(=O)[C@H](CCC(=O)O)NC(=O)[C@H](CCCCN)NC(=O)[C@H](C)NC(=O)[C@H](C)NC(=O)[C@H](CCC(N)=O)NC(=O)[C@H](CCC(=O)O)NC(=O)[C@H](CCC(=O)O)NC(=O)[C@H](CC(C)C)NC(=O)[C@H](Cc1ccc(O)cc1)NC(=O)[C@H](CO)NC(=O)[C@H](CO)NC(=O)[C@@H](NC(=O)[C@H](CC(=O)O)NC(=O)[C@H](CO)NC(=O)[C@@H](NC(=O)[C@H](Cc1ccccc1)NC(=O)[C@@H](NC(=O)CNC(=O)[C@H](CCC(=O)O)NC(=O)C(C)(C)NC(=O)[C@@H](N)Cc1c[nH]cn1)[C@@H](C)O)[C@@H](C)O)C(C)C)C(=O)N[C@@H](C)C(=O)N[C@@H](Cc1c[nH]c2ccccc12)C(=O)N[C@@H](CC(C)C)C(=O)N[C@H](C(=O)N[C@@H](CCCCN)C(=O)NCC(=O)NCC(=O)N1CCC[C@H]1C(=O)N[C@@H](CO)C(=O)N[C@@H](CO)C(=O)NCC(=O)N[C@@H](C)C(=O)N1CCC[C@H]1C(=O)N1CCC[C@H]1C(=O)N1CCC[C@H]1C(=O)N[C@@H](CO)C(=O)N[C@@H](CSCC(=O)NCCNC(=O)C(CC(=O)O)SC[C@H](NC(=O)[C@H](CO)NC(=O)[C@@H]1CCCN1C(=O)[C@@H]1CCCN1C(=O)[C@@H]1CCCN1C(=O)[C@H](C)NC(=O)CNC(=O)[C@H](CO)NC(=O)[C@H](CO)NC(=O)[C@@H]1CCCN1C(=O)CNC(=O)CNC(=O)[C@H](CC(N)=O)NC(=O)[C@H](CCSC)NC(=O)[C@H](CC(C)C)NC(=O)[C@H](Cc1c[nH]c2ccccc12)NC(=O)[C@H](CCC(N)=O)NC(=O)[C@@H](NC(=O)[C@H](Cc1ccccc1)NC(=O)[C@H](CC(=O)O)NC(=O)[C@H](CCC(N)=O)NC(=O)[C@H](C)NC(=O)[C@H](CCCNC(=N)N)NC(=O)[C@H](CCCNC(=N)N)NC(=O)[C@H](CO)NC(=O)[C@H](CC(=O)O)NC(=O)[C@H](CC(C)C)NC(=O)[C@H](Cc1ccc(O)cc1)NC(=O)[C@H](CCCCN)NC(=O)[C@H](CO)NC(=O)[C@H](Cc1ccc(O)cc1)NC(=O)[C@H](CC(=O)O)NC(=O)[C@H](CO)NC(=O)[C@@H](NC(=O)[C@H](Cc1ccccc1)NC(=O)[C@@H](NC(=O)CNC(=O)[C@H](CCC(N)=O)NC(=O)[C@H](CO)NC(=O)[C@@H](N)Cc1c[nH]cn1)[C@@H](C)O)[C@@H](C)O)C(C)C)C(N)=O)C(N)=O)C(C)C (stereo partly shown) [Peptide 5] | without detectable degradation | no statistical significance | 0.00485 ± 0.00429 nM | no statistical significance | 0.323 ± 0.187 nM |  |  |  |  |  |  |
|  | CC[C@H](C)[C@H](NC(=O)[C@H](Cc1ccccc1)NC(=O)[C@H](CCC(=O)O)NC(=O)[C@H](CCCCN)NC(=O)[C@H](C)NC(=O)[C@H](C)NC(=O)[C@H](CCC(N)=O)NC(=O)[C@H](CCC(=O)O)NC(=O)[C@H](CCC(=O)O)NC(=O)[C@H](CC(C)C)NC(=O)[C@H](Cc1ccc(O)cc1)NC(=O)[C@H](CO)NC(=O)[C@H](CO)NC(=O)[C@@H](NC(=O)[C@H](CC(=O)O)NC(=O)[C@H](CO)NC(=O)[C@@H](NC(=O)[C@H](Cc1ccccc1)NC(=O)[C@@H](NC(=O)CNC(=O)[C@H](CCC(=O)O)NC(=O)C(C)(C)NC(=O)[C@@H](N)Cc1c[nH]cn1)[C@@H](C)O)[C@@H](C)O)C(C)C)C(=O)N[C@@H](C)C(=O)N[C@@H](Cc1c[nH]c2ccccc12)C(=O)N[C@@H](CC(C)C)C(=O)N[C@H](C(=O)N[C@@H](CCCCN)C(=O)NCC(=O)NCC(=O)N1CCC[C@H]1C(=O)N[C@@H](CO)C(=O)N[C@@H](CO)C(=O)NCC(=O)N[C@@H](C)C(=O)N1CCC[C@H]1C(=O)N1CCC[C@H]1C(=O)N1CCC[C@H]1C(=O)N[C@@H](CO)C(=O)N[C@@H](CSCC(=O)NCCN1C(=O)CC(SC[C@H](NC(=O)[C@H](CO)NC(=O)[C@@H]2CCCN2C(=O)[C@@H]2CCCN2C(=O)[C@@H]2CCCN2C(=O)[C@H](C)NC(=O)CNC(=O)[C@H](CO)NC(=O)[C@H](CO)NC(=O)[C@@H]2CCCN2C(=O)CNC(=O)CNC(=O)[C@H](CC(N)=O)NC(=O)[C@H](CCSC)NC(=O)[C@H](CC(C)C)NC(=O)[C@H](Cc2c[nH]c3ccccc23)NC(=O)[C@H](CCC(N)=O)NC(=O)[C@@H](NC(=O)[C@H](Cc2ccccc2)NC(=O)[C@H](CC(=O)O)NC(=O)[C@H](CCC(N)=O)NC(=O)[C@H](C)NC(=O)[C@H](CCCNC(=N)N)NC(=O)[C@H](CCCNC(=N)N)NC(=O)[C@H](CO)NC(=O)[C@H](CC(=O)O)NC(=O)[C@H](CC(C)C)NC(=O)[C@H](Cc2ccc(O)cc2)NC(=O)[C@H](CCCCN)NC(=O)[C@H](CO)NC(=O)[C@H](Cc2ccc(O)cc2)NC(=O)[C@H](CC(=O)O)NC(=O)[C@H](CO)NC(=O)[C@@H](NC(=O)[C@H](Cc2ccccc2)NC(=O)[C@@H](NC(=O)CNC(=O)[C@H](CCC(N)=O)NC(=O)[C@H](CO)NC(=O)[C@@H](N)Cc2c[nH]cn2)[C@@H](C)O)[C@@H](C)O)C(C)C)C(N)=O)C1=O)C(N)=O)C(C)C (stereo partly shown) [Peptide 4] |  | no statistical significance | 0.00468 ± 0.00153 nM | no statistical significance | 0.607 ± 0.428 nM | much enhanced GLP-1 receptor activity relative to glucagon | comparable potency to native GLP-1 | did not result in sufficient thiosuccinimide hydrolysis | ≤ 1 h | approximately 12 hours | reduced but comparable potency |
| enhanced stability | O=C(CI)NCCN1C(=O)C=CC1=O [Linker 1, N-(2-(2,5-dioxo-2,5-dihydro-1H-pyrrol-1-yl)ethyl)-2-iodoacetamide] |  |  |  |  |  |  |  |  |  |  |  |
